Assay results taken from ChEMBL document CHEMBL1201862, “PubChem BioAssay data set” (2004).
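Five compound concentrations were applied to cells in 96-well plates for 48 hours; endpoints were derived by simple linear interpolation of the resulting dose-response curve. At the GI50, growth is halved.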 Activity calls are given as the source filed them. No stated cut-off is given here; in the data, active = GI50 up to about 1.1 µM and inactive = higher.

Key:
Experiment in all cases: growth of human tumour cells (NCI), 48 h
[1] = test system: LXFL 529
[2] = test system: SW-620
[3] = test system: A498
[4] = test system: OVCAR-8
[5] = test system: NCI-H23
[6] = test system: HOP-62
[7] = test system: HCT-116
[8] = test system: RPMI-8226
[9] = test system: NCI-H226
[10] = test system: ACHN
[11] = test system: EKVX
[12] = test system: U-251
[13] = test system: NCI-H522
[14] = test system: K562
[15] = test system: SK-OV-3
[16] = test system: SK-MEL-28
[17] = test system: BT-549
[18] = test system: T47D
[19] = test system: MDA-MB-231
[20] = test system: MDA-MB-435

Measured: GI50

CC1=NN(C(=O)c2ccc(Cl)cc2)C(=O)/C1=C/c1ccc(O)cc1
inactive: [1] > 100 µM | [2] > 100 µM | [3] > 100 µM | [4] > 100 µM | [5] > 100 µM | [6] > 100 µM | [7] > 100 µM | [8] > 100 µM | [9] > 100 µM | [10] > 100 µM | [11] > 100 µM | [12] > 100 µM | [13] > 100 µM | [14] > 100 µM | [15] > 100 µM | [16] > 100 µM

COc1ccc2c(c1)[n+]([O-])c(C(=O)CC(=O)C(=O)Nc1cccc(Cl)c1C)c(C)[n+]2[O-]
inactive: [1] > 100 µM | [2] 68.9 µM | [3] > 100 µM | [4] > 100 µM | [5] > 100 µM | [6] > 100 µM | [7] > 100 µM | [8] 83.6 µM | [9] > 100 µM | [10] > 100 µM | [11] > 100 µM | [12] > 100 µM | [13] 26.2 µM | [14] 60.7 µM | [15] > 100 µM | [16] > 100 µM

CCOP(=O)(OCC)/C(C#N)=C/c1ccco1
inactive: [1] > 100 µM | [2] > 100 µM | [3] > 100 µM | [4] > 100 µM | [5] > 100 µM | [6] > 100 µM | [7] > 100 µM | [8] > 100 µM | [9] > 100 µM | [10] > 100 µM | [11] > 100 µM | [12] > 100 µM | [13] > 100 µM | [14] > 100 µM | [15] > 100 µM | [16] > 100 µM

CC1(C)C(=O)/C=C\C(=O)C(C)(C)C(=O)/C=C\C(=O)C(C)(C)C(=O)/C=C\C(=O)C(C)(C)C(=O)/C=C\C1=O
inactive: [1] 7.28 µM | [2] 11.1 µM | [17] > 10 µM | [3] > 68.5 µM | [4] 19.7 µM | [5] 21.4 µM | [6] > 100 µM | [7] 15.7 µM | [18] 30.8 µM | [8] 4.97 µM | [9] > 63 µM | [10] 26.8 µM | [11] 39.6 µM | [12] 27.7 µM | [13] 8.41 µM | [19] 26.2 µM | [20] 31.2 µM | [14] 5.43 µM | [15] > 70 µM | [16] 26.5 µM
